Laboratory results published in US12180226B2, “Spirotricycle RIPK1 inhibitors and methods of uses thereof” (Merck Sharp & Dohme LLC, priority 2021, dated 2024).

Molecular target: RIPK1 (recombinant GST-RIPK1 kinase domain, residues 1-327) (Homo sapiens (Human), UniProt Q13546)
Experiment: RIPK1-ADP-Glo Enzymatic Assay
Assay type: biochemical
Details: ADP-Glo; 25 nM GST-RIPK1, 300 μM ATP; assay lower limit ~25 nM; read-out: RIPK1 V0 Ec50
Procedure, shortened: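 ADP-Glo luminescence read after 150 min kinase reaction (300 μM ATP, 3 μM dephosphorylated MBP) using 25 nM Sf21-made GST-kinase domain (1-327), preincubated 30 min with compound. HEPES pH 7.3, 1% DMSO; ten-point 1:3 series from 100000 nM, EC50 via four-parameter sigmoidal regression.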

Sequence of RIPK1 (recombinant GST-RIPK1 kinase domain, residues 1-327) (Q13546 1-327): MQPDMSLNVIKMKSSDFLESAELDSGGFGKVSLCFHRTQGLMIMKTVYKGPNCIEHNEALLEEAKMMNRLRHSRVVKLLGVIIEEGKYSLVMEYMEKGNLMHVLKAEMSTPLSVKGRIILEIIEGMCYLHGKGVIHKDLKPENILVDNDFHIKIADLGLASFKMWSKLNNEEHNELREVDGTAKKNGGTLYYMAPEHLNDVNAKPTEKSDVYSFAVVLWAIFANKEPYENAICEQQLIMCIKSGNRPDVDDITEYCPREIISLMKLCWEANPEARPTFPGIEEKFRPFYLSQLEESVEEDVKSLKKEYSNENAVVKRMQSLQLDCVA

Row | EC50 | Structure (SMILES)
1 | < 25 nM | COc1nc(N2CCC3(CC2)O[C@@H]2CC[C@@H](c4ccccc4)N2C3=O)ncc1-c1ncco1 [Example 21.10, (5′S,7a′R)-1-[4-methoxy-5-(1,3-oxazol-2-yl)pyrimidin-2-yl]-5′-phenyltetrahydro-3′H-spiro[piperidine-4,2′-pyrrolo[2,1-b][1,3]oxazol]-3′-one]
2 | 36.6 nM | Cc1nc(N2CCC3(CC2)O[C@@H]2CC[C@@H](c4ccccc4)N2C3=O)ncc1-c1ccnn1C [Example 21.8, (5′S,7a′R)-1-[4-methyl-5-(1-methyl-1H-pyrazol-5-yl)pyrimidin-2-yl]-5′-phenyltetrahydro-3′H-spiro[piperidine-4,2′-pyrrolo[2,1-b][1,3]oxazol]-3′-one]
3 | 63.3 nM | CCOC(=O)c1nc(N2CCC3(CC2)O[C@@H]2CC[C@@H](c4cc(F)cc(F)c4)N2C3=O)ncc1F [Example 4.205, ethyl 2-[(5′S,7a′R)-5′-(3,5-difluorophenyl)-3′-oxotetrahydro-1H,3′H-spiro[piperidine-4,2′-pyrrolo[2,1-b] [1,3]oxazol]-1-yl]-5-fluoropyrimidine-4-carboxylate]
4 | < 25 nM | CC1CC2(CCN1c1ccnc3ccnn13)O[C@@H]1CC[C@@H](c3ccccc3)N1C2=O (stereo partly drawn) [Example 4.231, (4R,5′S,7a′R)-2-methyl-5′-phenyl-1-(pyrazolo[1,5-a]pyrimidin-7-yl)tetrahydro-3′H-spiro[piperidine-4,2′-pyrrolo[2,1-b] [1,3]oxazol]-3′-one]
5 | < 25 nM | O=C1N2[C@@H](CC[C@H]2c2ccccc2)OC12CCN(c1cc(-c3ccccc3)ncn1)CC2 [Example 4.32, (5′S,7a′R)-5′-phenyl-1-(6-phenylpyrimidin-4-yl)tetrahydro-3′H-spiro[piperidine-4,2′-pyrrolo[2,1-b] [1,3]oxazol]-3′-one]
6 | < 25 nM | O=C(c1nsnc1Cl)N1CCC2(CC1)O[C@@H]1CC[C@@H](c3cc(F)cc(F)c3)N1C2=O [Example 6.19, (5′S,7a′R)-1-(4-chloro-1,2,5-thiadi-azole-3-carbonyl)-5′-(3,5-difluorophenyl)-tetrahydro-3′H-spiro [piperidine-4,2′-pyrrolo[2,1-b][1,3]oxazol]-3′-one]
7 | < 25 nM | O=C1N2[C@@H](CC[C@H]2c2cc(F)ccc2F)OC12CCN(c1ccnc3ccnn13)CC2 [Example 4.114, (5′S,7a′R)-5′-(2,5-difluorophenyl)-1-(pyrazolo[1,5-a]pyrimidin-7-yl)tetrahydro-3′H-spiro[piperidine-4,2′-pyrrolo[2,1-b] [1,3]oxazol]-3′-one]
8 | 230 nM | CCn1nccc1C(=O)N1CCC2(CC1)O[C@@H]1CC[C@@H](c3cc(F)cc(F)c3)N1C2=O [Example 6.37, (5′S,7a′R)-5′-(3,5-difluorophenyl)-1-(1-ethyl-1H-pyrazole-5-carbonyl)tetrahydro-3′H-spiro[piperidine-4,2′-pyrrolo[2,1-b] [1,3]oxazol]-3′-one]
9 | < 25 nM | O=C1N2[C@@H](CC[C@H]2c2ccccc2F)OC12CCN(c1ccnc3ccnn13)CC2 [Example 4.103, (5′S,7a′R)-5′-(2-fluorophenyl)-1-(pyrazolo[1,5-a]pyrimidin-7-yl)tetrahydro-3′H-spiro[piperidine-4,2′-pyrrolo[2,1-b]oxazol]-3′-one]
10 | 256 nM | O=C(C1CC1)N1CCC2(CC1)O[C@@H]1CC[C@@H](c3cc(F)cc(F)c3)N1C2=O [Example 1.8, (5′S,7a′R)-1-(cyclopropanecarbonyl)-5′-(3,5-difluorophenyl)tetrahydro-3′H-spiro[piperidine-4,2′-pyrrolo[2,1-b] [1,3]oxazol]-3′-one]
11 | 136 nM | Cc1ncc([C@@H]2CC[C@H]3OC4(CCN(C(=O)c5ccccc5)CC4F)C(=O)N32)cc1F (stereo partly drawn) [Example 2.10, (5′S,7a′R)-1-(benzenecarbonyl)-3-fluoro-5′-(5-fluoro-6-methylpyridin-3-yl)tetrahydro-3′H-spiro[piperidine-4,2′-pyrrolo[2,1-b][1,3]oxazol]-3′-one]
